The results in this text go back to publication PMC4620497 (Scientific Reports, 2015).

One experiment has as its target T1, CDKL3 (Homo sapiens, UniProt Q8IVW4).
T1 construct: purchased DiscoveRx KINOMEscan (Ambit Biosciences)
Briefly: KINOMEscan panel screen. As to conditions: read-out: Percent Control(%). It counts as binding.

The target in another experiment is T2, EPHA6 (Homo sapiens, UniProt Q9UF33).
T2 construct: purchased DiscoveRx KINOMEscan (Ambit Biosciences)
Briefly: KINOMEscan panel screen. It counts as binding. As to conditions: read-out: Percent Control(%).

The target of a further experiment is T3, EPHB1 (Homo sapiens, UniProt P54762).
T3 construct: purchased DiscoveRx KINOMEscan (Ambit Biosciences)
T3 sequence (P54762 18-984): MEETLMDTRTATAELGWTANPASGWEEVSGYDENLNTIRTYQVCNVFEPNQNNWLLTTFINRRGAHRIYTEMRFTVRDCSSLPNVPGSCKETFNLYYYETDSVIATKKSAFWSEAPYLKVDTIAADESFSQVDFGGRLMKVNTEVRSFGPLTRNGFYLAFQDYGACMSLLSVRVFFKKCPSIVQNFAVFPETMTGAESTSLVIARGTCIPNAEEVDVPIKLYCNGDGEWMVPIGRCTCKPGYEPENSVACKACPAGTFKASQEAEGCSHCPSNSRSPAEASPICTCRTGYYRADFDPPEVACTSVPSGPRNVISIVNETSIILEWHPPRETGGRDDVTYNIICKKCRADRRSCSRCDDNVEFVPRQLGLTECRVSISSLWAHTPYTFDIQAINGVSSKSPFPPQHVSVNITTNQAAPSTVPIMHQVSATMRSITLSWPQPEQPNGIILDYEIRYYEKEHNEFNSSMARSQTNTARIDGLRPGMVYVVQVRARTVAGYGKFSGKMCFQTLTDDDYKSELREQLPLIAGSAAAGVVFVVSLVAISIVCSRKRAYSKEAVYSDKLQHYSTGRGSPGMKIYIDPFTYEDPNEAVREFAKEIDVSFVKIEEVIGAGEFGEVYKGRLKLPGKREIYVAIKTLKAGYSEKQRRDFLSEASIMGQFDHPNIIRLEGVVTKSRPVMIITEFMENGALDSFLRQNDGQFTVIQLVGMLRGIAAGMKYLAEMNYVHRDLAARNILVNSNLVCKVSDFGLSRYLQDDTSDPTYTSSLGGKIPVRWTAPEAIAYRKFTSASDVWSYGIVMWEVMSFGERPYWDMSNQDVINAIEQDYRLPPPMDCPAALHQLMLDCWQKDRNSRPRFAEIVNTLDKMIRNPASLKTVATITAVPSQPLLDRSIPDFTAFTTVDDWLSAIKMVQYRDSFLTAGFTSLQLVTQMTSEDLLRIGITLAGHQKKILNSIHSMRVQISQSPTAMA
Briefly: KINOMEscan panel screen. It counts as binding. As to conditions: read-out: Percent Control(%).

The target in experiment [1] is T4, JAK2(JH1domain-catalytic) (Homo sapiens, UniProt O60674).
T4 construct: JAK2(JH1domain-catalytic); purchased DiscoveRx KINOMEscan (Ambit Biosciences)
T4 sequence (O60674 849-1124 limits assumed): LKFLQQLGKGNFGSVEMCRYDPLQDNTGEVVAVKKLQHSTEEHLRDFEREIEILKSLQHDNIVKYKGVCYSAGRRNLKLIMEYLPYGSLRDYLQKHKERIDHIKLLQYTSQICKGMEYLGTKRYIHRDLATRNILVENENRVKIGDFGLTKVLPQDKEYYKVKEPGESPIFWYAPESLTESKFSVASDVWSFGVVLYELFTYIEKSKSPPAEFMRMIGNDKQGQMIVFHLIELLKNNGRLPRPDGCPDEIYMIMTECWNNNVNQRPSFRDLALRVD
Briefly: KINOMEscan panel screen. It counts as binding. As to conditions: read-out: Percent Control(%).

In a further experiment the target is T5, LTK (Homo sapiens, UniProt P29376).
T5 construct: purchased DiscoveRx KINOMEscan (Ambit Biosciences)
In words: KINOMEscan panel screen. It counts as binding. As to conditions: read-out: Percent Control(%).

The target in a further experiment is T6, LZK (Homo sapiens, UniProt O43283).
T6 construct: purchased DiscoveRx KINOMEscan (Ambit Biosciences)
T6 sequence (O43283 whole entry): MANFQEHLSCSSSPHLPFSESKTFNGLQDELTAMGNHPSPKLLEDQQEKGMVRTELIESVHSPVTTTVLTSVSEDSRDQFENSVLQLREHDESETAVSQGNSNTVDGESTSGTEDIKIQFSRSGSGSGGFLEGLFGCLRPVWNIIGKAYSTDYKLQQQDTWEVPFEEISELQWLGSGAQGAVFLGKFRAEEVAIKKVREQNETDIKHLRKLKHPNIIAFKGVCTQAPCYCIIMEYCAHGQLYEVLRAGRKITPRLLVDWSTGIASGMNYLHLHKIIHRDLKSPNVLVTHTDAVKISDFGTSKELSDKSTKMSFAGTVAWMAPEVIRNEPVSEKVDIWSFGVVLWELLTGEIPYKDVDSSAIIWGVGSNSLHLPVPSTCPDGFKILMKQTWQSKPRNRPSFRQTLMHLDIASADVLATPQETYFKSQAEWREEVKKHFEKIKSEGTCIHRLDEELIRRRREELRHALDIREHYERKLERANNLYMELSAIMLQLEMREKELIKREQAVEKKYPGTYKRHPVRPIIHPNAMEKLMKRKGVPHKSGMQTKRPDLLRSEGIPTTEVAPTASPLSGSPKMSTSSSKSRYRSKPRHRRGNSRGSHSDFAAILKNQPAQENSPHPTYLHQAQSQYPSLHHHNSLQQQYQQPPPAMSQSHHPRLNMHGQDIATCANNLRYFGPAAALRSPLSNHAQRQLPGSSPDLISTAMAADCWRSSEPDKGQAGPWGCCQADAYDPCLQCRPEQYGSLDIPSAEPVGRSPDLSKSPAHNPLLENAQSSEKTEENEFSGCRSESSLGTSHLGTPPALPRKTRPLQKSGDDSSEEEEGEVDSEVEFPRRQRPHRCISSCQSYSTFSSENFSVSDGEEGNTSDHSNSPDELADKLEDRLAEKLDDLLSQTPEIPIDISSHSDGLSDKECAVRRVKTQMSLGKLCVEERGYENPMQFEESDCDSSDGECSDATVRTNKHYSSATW
Briefly: KINOMEscan panel screen. As to conditions: read-out: Percent Control(%). It counts as binding.

For another experiment, the target named is T7, MKK7 (Homo sapiens, UniProt O14733).
T7 construct: purchased DiscoveRx KINOMEscan (Ambit Biosciences)
T7 sequence (O14733 whole entry): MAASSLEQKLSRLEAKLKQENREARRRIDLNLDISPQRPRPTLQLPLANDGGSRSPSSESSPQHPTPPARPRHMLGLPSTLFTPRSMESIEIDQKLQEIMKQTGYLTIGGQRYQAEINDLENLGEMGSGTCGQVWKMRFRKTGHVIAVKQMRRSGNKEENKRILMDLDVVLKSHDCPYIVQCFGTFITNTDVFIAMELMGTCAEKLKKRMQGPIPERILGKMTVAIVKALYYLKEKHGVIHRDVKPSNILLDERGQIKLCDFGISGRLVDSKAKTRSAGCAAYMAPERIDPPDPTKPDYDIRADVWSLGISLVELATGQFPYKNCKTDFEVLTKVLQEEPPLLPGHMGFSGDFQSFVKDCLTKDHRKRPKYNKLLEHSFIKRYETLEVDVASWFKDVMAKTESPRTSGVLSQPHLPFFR
In words: KINOMEscan panel screen. It counts as binding. As to conditions: read-out: Percent Control(%).

A further experiment addresses T8, MTOR (Homo sapiens, UniProt P42345).
T8 construct: purchased DiscoveRx KINOMEscan (Ambit Biosciences)
Briefly: KINOMEscan panel screen. It counts as binding. As to conditions: read-out: Percent Control(%).

Another experiment has as its target T9, NEK1 (Homo sapiens, UniProt Q96PY6).
T9 construct: purchased DiscoveRx KINOMEscan (Ambit Biosciences)
In words: KINOMEscan panel screen. It counts as binding. As to conditions: read-out: Percent Control(%).

Another experiment addresses T10, NEK3 (Homo sapiens, UniProt P51956).
T10 construct: purchased DiscoveRx KINOMEscan (Ambit Biosciences)
In words: KINOMEscan panel screen. It counts as binding. As to conditions: read-out: Percent Control(%).

A further experiment deals with T11, PIK3CA (Homo sapiens, UniProt P42336).
T11 construct: purchased DiscoveRx KINOMEscan (Ambit Biosciences)
T11 sequence (P42336 whole entry): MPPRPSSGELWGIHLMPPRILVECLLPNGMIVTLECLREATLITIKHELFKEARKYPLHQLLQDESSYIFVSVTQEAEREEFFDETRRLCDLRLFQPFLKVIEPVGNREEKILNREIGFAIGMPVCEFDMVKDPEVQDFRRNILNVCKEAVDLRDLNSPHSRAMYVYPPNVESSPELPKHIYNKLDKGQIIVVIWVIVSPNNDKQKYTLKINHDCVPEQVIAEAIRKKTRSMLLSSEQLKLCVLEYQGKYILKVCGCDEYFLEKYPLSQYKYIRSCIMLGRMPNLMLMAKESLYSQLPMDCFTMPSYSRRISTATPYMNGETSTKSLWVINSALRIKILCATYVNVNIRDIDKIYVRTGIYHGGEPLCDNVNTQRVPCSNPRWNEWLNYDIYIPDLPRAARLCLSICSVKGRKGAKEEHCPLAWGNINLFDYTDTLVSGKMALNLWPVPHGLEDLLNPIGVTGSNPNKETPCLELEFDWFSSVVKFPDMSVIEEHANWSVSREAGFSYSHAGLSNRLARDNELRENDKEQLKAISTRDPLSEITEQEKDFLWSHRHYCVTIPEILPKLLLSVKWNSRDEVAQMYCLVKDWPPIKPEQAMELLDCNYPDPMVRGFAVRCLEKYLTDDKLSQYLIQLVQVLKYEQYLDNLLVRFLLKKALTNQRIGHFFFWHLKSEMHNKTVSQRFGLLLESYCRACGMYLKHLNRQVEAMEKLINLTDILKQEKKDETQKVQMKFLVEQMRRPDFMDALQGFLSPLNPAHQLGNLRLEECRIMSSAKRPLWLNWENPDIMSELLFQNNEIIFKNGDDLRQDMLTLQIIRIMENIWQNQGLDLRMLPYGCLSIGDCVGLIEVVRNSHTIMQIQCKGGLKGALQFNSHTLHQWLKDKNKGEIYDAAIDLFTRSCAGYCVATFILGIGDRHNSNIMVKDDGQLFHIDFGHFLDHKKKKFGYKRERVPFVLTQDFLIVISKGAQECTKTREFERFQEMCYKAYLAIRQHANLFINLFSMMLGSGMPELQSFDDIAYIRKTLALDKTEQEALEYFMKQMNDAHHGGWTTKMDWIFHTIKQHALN
Briefly: KINOMEscan panel screen. It counts as binding. As to conditions: read-out: Percent Control(%).

Another experiment deals with T12, PIK3CA(M1043I) (Homo sapiens, UniProt P42336, M1043I).
T12 construct: purchased DiscoveRx KINOMEscan (Ambit Biosciences)
T12 sequence (P42336 whole entry M1043I): as the sequence (P42336 whole entry) above, with M1043I counted along it
Briefly: KINOMEscan panel screen. It counts as binding. As to conditions: read-out: Percent Control(%).

Another experiment addresses T13, SRC (Homo sapiens, UniProt P12931).
T13 construct: purchased DiscoveRx KINOMEscan (Ambit Biosciences)
In words: KINOMEscan panel screen. It counts as binding. As to conditions: read-out: Percent Control(%).

A further experiment concerns the target T14, STK39 (Homo sapiens, UniProt Q9UEW8).
T14 construct: purchased DiscoveRx KINOMEscan (Ambit Biosciences)
In words: KINOMEscan panel screen. It counts as binding. As to conditions: read-out: Percent Control(%).

For the next experiment, the target named is T15, TLK2 (Homo sapiens, UniProt Q86UE8).
T15 construct: purchased DiscoveRx KINOMEscan (Ambit Biosciences)
Briefly: KINOMEscan panel screen. It counts as binding. As to conditions: read-out: Percent Control(%).

Another experiment has as its target T16, TRKA (Homo sapiens, UniProt P04629).
T16 construct: purchased DiscoveRx KINOMEscan (Ambit Biosciences)
Briefly: KINOMEscan panel screen. It counts as binding. As to conditions: read-out: Percent Control(%).

The target in the next experiment is T17, FLT3-wt (Homo sapiens, UniProt P36888).
T17 construct: DNA tag (qPCR read-out); purchased Ambit Biosciences (KINOMEscan service)
Briefly: KINOMEscan kinase binding assay (Kd).

In another experiment the test system is zebrafish embryos. In words: Zebrafish development experiment (posterior axis formation). It counts as in vivo. As to conditions: added at 4hpf, observed after 24hpf.
Experiment [2] has as its system phosphorylation of FLT3 and STAT5 in MV4-11 tumors. Briefly: FLT3 signaling in MV4-11 xenograft tumors (western blot). It counts as in vivo, NOD-SCID mice. As to conditions: single oral dose 10 mg/kg. The procedure:
To examine the effects of SKLB-677 on FLT3 and Wnt/β-catenin signaling in vivo, the same MV4-11 xenograft model was used and MV4-11 tumors were harvested at specific time points (0 h, 4 h, 6 h, 8 h, 12 h, and 24 h) after the treatment of 10 mg/kg SKLB-677 (3 mice for each time point). Western blot assays and real-time qPCR assays were conducted on the harvested tumors.
Western blot analysis was performed as previously described. Whole protein lysates of tumor samples were collected by the abrading of tumors in liquid nitrogen. […] Quantitative analysis of the protein level was performed with NIH image analysis software, ImageJ (normalized relative to the vehicle control).
Figure 5 In vivo effects of SKLB-677. […] The tumor volume and body weight were measured every 3 days during the treatment. […] Ki67 and TUNEL were detected with immunohistochemical. […] Tumors were harvested at the indicated time points, and the FLT3 signaling pathway was detected using western blot assays. […] (e) The same harvested tumors were detected using real-time qPCR assays to test the expression of AXIN2 and NKD1 (the target genes of Wnt/β-catenin pathway). […] The plasma concentrations were determined using liquid–liquid extraction followed by high-performance liquid chromatography (HPLC) with tandem mass spectrometric detection.

A further experiment addresses FLT3-D835Y (Homo sapiens, UniProt P36888, D835Y). In words: KINOMEscan kinase binding assay (Kd). On the set-up: purchased Ambit Biosciences (KINOMEscan).

Each structure is given as a SMILES string.

T13 sequence (P12931 whole entry): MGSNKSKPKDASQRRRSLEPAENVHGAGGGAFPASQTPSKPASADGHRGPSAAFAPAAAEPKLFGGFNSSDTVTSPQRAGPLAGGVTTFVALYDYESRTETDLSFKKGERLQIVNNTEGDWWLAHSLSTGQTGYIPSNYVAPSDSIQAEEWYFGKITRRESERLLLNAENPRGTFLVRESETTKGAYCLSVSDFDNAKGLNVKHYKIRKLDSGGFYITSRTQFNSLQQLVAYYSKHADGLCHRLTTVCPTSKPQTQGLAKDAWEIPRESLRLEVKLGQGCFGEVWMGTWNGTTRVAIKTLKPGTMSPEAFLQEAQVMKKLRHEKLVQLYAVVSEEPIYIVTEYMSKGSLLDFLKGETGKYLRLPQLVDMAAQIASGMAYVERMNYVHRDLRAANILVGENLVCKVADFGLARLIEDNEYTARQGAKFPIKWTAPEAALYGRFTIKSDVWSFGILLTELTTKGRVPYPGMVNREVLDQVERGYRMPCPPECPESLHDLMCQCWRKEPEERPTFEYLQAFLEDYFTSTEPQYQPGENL
T1 sequence (Q8IVW4 whole entry): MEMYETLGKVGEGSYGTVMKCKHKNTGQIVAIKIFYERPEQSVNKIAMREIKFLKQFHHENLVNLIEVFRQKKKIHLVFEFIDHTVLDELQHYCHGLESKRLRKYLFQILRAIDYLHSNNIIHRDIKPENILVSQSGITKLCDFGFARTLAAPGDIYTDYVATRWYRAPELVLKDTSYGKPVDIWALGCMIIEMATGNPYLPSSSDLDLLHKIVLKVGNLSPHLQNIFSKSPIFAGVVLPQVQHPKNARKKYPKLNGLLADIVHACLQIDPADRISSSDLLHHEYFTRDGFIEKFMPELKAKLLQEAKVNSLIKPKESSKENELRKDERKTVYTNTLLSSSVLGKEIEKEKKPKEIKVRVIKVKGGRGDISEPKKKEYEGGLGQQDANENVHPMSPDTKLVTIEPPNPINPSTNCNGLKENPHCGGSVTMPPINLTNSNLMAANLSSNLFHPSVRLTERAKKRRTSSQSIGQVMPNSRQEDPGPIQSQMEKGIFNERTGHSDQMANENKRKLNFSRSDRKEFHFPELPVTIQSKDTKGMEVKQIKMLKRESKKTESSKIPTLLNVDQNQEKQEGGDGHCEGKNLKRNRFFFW

A word on the Kd: it is the free concentration of one partner at which half of the binding sites on the other are occupied at equilibrium, for simple one-to-one binding. Read a low Kd as higher affinity. Turning to `CC(C)(C)c1cc(NC(=O)Nc2ccc(Oc3ncnc4[nH]ncc34)c(F)c2)no1` [SKLB-677, 1-(4-(1H-pyrazolo[3,4-d]pyrimidin-4-yloxy)-3-fluorophenyl)-3-(5-tert-butylisoxazol-3-yl)urea], the remaining binding at 10 µM is 0.75% on CDKL3; 0% at EPHA6; 3.2% on EPHB1; 31% in [1]; 1.2% at LTK; 93% on LZK. Besides, the remaining binding at 10 µM on MKK7 stood at 77%; at MTOR it was 100%; on NEK1, 64%; at NEK3 it was 41%; at PIK3CA, 100%; on PIK3CA(M1043I), 100%. Also, the remaining binding at 10 µM on SRC was found to be 9.2%; on STK39, 100%; on TLK2 it was 64%; at TRKA, 7.8%. Besides, the Kd at FLT3-wt was determined as 0.74 nM; on FLT3-D835Y, 1.3 nM. For the same compound, the embryo dorsalization result in the experiment with zebrafish embryos is on record as “led to embryo dorsalization in a dose-dependent manner”. Further, the “time for which the effects on p-FLT3 and p-STAT5 were maintained” value in experiment [2] is “up to 24 h”. Besides, the “phosphorylation of FLT3 and STAT5 in tumors” value in experiment [2] (4 h posttreatment) is given as “nearly abolished”.
